Structures can show the parent of a compound that is named as a salt.
How the values were obtained:
TLR8 = molecular target: T1, TLR8 (Homo sapiens, UniProt Q9NR97); assay: HEK/293 TLR8 Cell Assay; type: cell-based; details: HEK cells, R848 agonist 30 uM final concentration, Steady-Glo readout; read-out: TLR8 potency
T1 construct: expressed in transfected cells; host or cells: HEK/293 reporter cells (NF-kB luciferase)
T1 sequence (Q9NR97 27-1041): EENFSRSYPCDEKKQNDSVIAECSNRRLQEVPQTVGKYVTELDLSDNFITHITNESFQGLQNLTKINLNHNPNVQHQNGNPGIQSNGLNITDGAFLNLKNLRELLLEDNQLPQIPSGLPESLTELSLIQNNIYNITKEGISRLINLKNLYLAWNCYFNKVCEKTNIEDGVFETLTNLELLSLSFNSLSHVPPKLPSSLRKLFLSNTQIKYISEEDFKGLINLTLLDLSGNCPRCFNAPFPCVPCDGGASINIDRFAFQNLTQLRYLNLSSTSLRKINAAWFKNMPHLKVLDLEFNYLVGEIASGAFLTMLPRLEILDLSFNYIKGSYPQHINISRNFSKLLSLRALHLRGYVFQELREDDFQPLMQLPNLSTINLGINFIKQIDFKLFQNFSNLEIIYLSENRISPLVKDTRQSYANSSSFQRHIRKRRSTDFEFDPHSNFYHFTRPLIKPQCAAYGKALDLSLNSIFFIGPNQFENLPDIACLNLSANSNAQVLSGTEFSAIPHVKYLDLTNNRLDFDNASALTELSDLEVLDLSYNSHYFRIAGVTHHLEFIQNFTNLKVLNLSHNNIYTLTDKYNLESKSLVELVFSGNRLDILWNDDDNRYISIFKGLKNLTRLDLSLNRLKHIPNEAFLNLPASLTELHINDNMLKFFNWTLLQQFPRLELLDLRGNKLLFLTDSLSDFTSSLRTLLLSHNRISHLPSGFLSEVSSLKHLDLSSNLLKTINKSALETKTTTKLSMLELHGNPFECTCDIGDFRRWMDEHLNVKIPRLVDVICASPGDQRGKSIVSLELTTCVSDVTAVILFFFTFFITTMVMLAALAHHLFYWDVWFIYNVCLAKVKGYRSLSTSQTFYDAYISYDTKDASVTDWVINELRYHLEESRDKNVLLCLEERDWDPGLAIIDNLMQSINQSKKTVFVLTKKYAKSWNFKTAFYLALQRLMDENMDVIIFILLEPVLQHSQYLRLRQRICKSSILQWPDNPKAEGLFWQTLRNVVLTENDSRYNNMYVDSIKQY

TLR7 = molecular target: T2, TLR7 (Homo sapiens, UniProt Q9NYK1); assay: HEK/293 TLR7 Cell Assay; type: cell-based; details: TLR7/NFKb HEK cells, R848 agonist 10 uM final concentration, Steady-Glo readout; read-out: TLR7 potency
T2 construct: expressed in transfected cells; host or cells: HEK/293 cells carrying TLR7 and an NF-kB luciferase reporter
T2 sequence (Q9NYK1 27-1049): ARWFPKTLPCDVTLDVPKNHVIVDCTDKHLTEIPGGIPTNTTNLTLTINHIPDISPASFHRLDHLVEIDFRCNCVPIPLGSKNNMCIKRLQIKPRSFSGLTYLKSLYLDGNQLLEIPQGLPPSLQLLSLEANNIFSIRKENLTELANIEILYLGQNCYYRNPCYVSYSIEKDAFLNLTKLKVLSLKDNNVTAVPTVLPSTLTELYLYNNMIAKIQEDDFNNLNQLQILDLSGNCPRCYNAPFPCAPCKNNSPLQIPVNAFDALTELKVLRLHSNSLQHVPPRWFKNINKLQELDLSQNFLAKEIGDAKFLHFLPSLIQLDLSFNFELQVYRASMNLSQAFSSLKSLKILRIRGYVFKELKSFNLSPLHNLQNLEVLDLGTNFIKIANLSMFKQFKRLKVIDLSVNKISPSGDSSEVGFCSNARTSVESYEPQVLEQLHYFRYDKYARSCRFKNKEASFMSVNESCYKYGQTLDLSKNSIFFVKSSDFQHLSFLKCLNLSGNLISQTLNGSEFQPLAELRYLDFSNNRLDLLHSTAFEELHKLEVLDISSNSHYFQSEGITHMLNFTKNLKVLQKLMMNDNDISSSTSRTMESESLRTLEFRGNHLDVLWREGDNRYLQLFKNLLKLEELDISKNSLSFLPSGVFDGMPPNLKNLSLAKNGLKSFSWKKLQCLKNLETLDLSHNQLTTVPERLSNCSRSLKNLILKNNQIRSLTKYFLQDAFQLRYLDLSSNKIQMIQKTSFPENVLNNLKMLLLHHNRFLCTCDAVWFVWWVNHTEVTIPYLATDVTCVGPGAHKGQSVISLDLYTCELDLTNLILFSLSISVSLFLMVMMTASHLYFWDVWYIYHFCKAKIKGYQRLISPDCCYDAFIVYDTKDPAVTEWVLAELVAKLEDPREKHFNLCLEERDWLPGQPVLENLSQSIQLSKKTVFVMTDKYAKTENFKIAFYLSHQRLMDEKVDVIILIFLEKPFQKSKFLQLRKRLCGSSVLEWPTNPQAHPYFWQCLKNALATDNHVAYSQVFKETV
Outline: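 Compounds added to HEK cells expressing TLR7 with an NFκB reporter 30 min ahead of 10 uM R848 challenge; luciferase signal (Steady-Glo) measured after 5 h, cells having been seeded 24 h earlier at 5000 per well.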

IC50 (TLR8)	IC50 (TLR7)	SMILES
< 75 nM	75 to 150 nM	C[C@H]1C[C@@H](NC(=O)[C@@H]2COCCN2)CN(c2ccc(C#N)c3nccnc23)C1 [Example 208, (3S)—N-[(3R,5S)-1-(8-cyanoquinoxalin-5-yl)-5-methylpiperidin-3-yl]morpholine-3-carboxamide]
< 75 nM	75 to 150 nM	C[C@H]1C[C@@H](NC(=O)[C@H]2COCCN2)CN(c2ccc(C#N)c3nccnc23)C1 [Example 209, (3R)—N-[(3R,5S)-1-(8-cyanoquinoxalin-5-yl)-5-methylpiperidin-3-yl]morpholine-3-carboxamide]
> 150 nM	75 to 150 nM	C[C@@H]1CN(c2ccc(C#N)c3nccnc23)C[C@H](CN2CCC(F)(F)C2)O1 [Example 215, 8-[(2S,6R)-2-(3,3-Difluoro-pyrrolidin-1-ylmethyl)-6-methyl-morpholin-4-yl]-quinoxaline-5-carbonitrile]
> 150 nM	< 75 nM	C[C@@H]1CN(c2ccc(C#N)c3nccnc23)C[C@H](CN2CC(O)C2)O1 [Example 216, 8-[(2S,6R)-2-(3-Hydroxy-azetidin-1-ylmethyl)-6-methyl-morpholin-4-yl]-quinoxaline-5-carbonitrile]
> 150 nM	< 75 nM	C[C@@H]1CN(c2ccc(C#N)c3nccnc23)C[C@H](CN2CC(C)(O)C2)O1 [Example 218, 8-[(2S,6R)-2-(3-Hydroxy-3-methyl-azetidin-1-ylmethyl)-6-methyl-morpholin-4-yl]-quinoxaline-5-carbonitrile]
> 150 nM	75 to 150 nM	C[C@@H]1CN(c2ccc(C#N)c3nccnc23)C[C@H](CN2CCC(O)CC2)O1 [Example 219, 8-[(2S,6R)-2-(4-Hydroxy-piperidin-1-ylmethyl)-6-methyl-morpholin-4-yl]-quinoxaline-5-carbonitrile]
> 150 nM	< 75 nM	C[C@@H]1CN(c2ccc(C#N)c3nccnc23)C[C@H](CN2CC[C@H](O)C2)O1 [Example 220, 8-[(2S,6R)-2-((S)-3-Hydroxy-pyrrolidin-1-ylmethyl)-6-methyl-morpholin-4-yl]-quinoxaline-5-carbonitrile]
> 150 nM	< 75 nM	C[C@@H]1CN(c2ccc(C#N)c3nccnc23)C[C@H](CN2CC[C@@H](O)C2)O1 [Example 221, 8-[(2S,6R)-2-((R)-3-Hydroxy-pyrrolidin-1-ylmethyl)-6-methyl-morpholin-4-yl]-quinoxaline-5-carbonitrile]
< 75 nM	< 75 nM	Cc1c(F)cc(N2C[C@H](CN3CCC(N4CCCC4)CC3)O[C@H](C)C2)c2cccnc12 [Example 223, 7-Fluoro-8-methyl-5-[(2R,6S)-2-methyl-6-(4-pyrrolidin-1-yl-piperidin-1-ylmethyl)-morpholin-4-yl]-quinoline]
> 150 nM	< 75 nM	C[C@@H]1CN(c2ccc(C#N)c3ncncc23)C[C@H](CN2CCN(C)CC2)O1 [Example 224, 5-[(2R,6S)-2-Methyl-6-(4-methyl-piperazin-1-ylmethyl)-morpholin-4-yl]-quinazoline-8-carbonitrile]
< 75 nM	< 75 nM	C[C@H]1CN(c2ccc(C#N)c3nccnc23)C[C@H](CN2CCN(C)CC2)O1 [Example 231, 8-[(2S,6S)-2-Methyl-6-(4-methyl-piperazin-1-ylmethyl)-morpholin-4-yl]-quinoxaline-5-carbonitrile]

SMILES	IC50 (TLR8)	IC50 (TLR7)
N#Cc1ccc(N2C[C@H](NC(=O)C3(F)CCNC3)C[C@H](C(F)(F)F)C2)c2cccnc12 (stereo partly drawn) [Example 206, N-[(3R,5S)-1-(8-cyanoquinolin-5-yl)-5-(trifluoromethyl)piperidin-3-yl]-3-fluoropyrrolidine-3-carboxamide]	75 to 150 nM	75 to 150 nM
C[C@H]1C[C@@H](NC(=O)CC2CS(=O)(=O)C2)CN(c2ccc(C#N)c3nccnc23)C1 [Example 207, N-[(3R,5S)-1-(8-cyanoquinoxalin-5-yl)-5-methylpiperidin-3-yl]-2-(1,1-dioxo-1λ^6-thietan-3-yl)acetamide]	75 to 150 nM	> 150 nM
C[C@H]1C[C@@H](NC(=O)C[C@H](O)CN(C)C)CN(c2ccc(C#N)c3nccnc23)C1 [Example 210, (3S)—N-[(3R,5S)-1-(8-cyanoquinoxalin-5-yl)-5-methylpiperidin-3-yl]-4-(dimethylamino)-3-hydroxybutanamide]	< 75 nM	< 75 nM
C[C@H]1C[C@@H](NC(=O)C[C@@H](O)CN(C)C)CN(c2ccc(C#N)c3nccnc23)C1 [Example 211, (3R)—N-[(3R,5S)-1-(8-cyanoquinoxalin-5-yl)-5-methylpiperidin-3-yl]-4-(dimethylamino)-3-hydroxybutanamide]	< 75 nM	< 75 nM
CCN(CC)C1CCN(C[C@H]2CN(c3ccc(C#N)c4nccnc34)C[C@@H](C)O2)CC1 [Example 217, 8-[(2S,6R)-2-(4-Diethylamino-piperidin-1-ylmethyl)-6-methyl-morpholin-4-yl]-quinoxaline-5-carbonitrile]	< 75 nM	< 75 nM
C[C@@H]1CN(c2ccc(C#N)c3nccnc23)C[C@H](CN2CCC(C(C)(C)O)C2)O1 (stereo partly drawn) [Example 222, 8-{(2S,6R)-2-[3-(1-Hydroxy-1-methyl-ethyl)-pyrrolidin-1-ylmethyl]-6-methyl-morpholin-4-yl}-quinoxaline-5-carbonitrile]	75 to 150 nM	< 75 nM
C[C@@H]1CN(c2ccc(C#N)c3nccnc23)C[C@H](CSC2CNC2)O1 [Example 225, 8-[(2R,6R)-2-(Azetidin-3-ylsulfanylmethyl)-6-methyl-morpholin-4-yl]-quinoxaline-5-carbonitrile hydrochloride]	< 75 nM	< 75 nM
C[C@@H]1CN(c2ccc(C#N)c3nccnc23)C[C@H](CSC2CN(CC(C)(C)O)C2)O1 [Example 226, 8-{(2R,6R)-2-[1-(2-Hydroxy-2-methyl-propyl)-azetidin-3-ylsulfanylmethyl]-6-methyl-morpholin-4-yl}-quinoxaline-5-carbonitrile]	< 75 nM	< 75 nM
C[C@@H]1CN(c2ccc(C#N)c3nccnc23)C[C@H](CSCC(O)CO)O1 (stereo partly drawn) [Example 227, 8-[(2R,6R)-2-(2,3-Dihydroxy-propylsulfanylmethyl)-6-methyl-morpholin-4-yl]-quinoxaline-5-carbonitrile]	< 75 nM	75 to 150 nM
C[C@@H]1CN(c2ccc(C#N)c3nccnc23)C[C@H](CN2CCC(F)(C(=O)O)CC2)O1 [Example 228, 1-[(2S,6R)-4-(8-Cyano-quinoxalin-5-yl)-6-methyl-morpholin-2-ylmethyl]-4-fluoro-piperidine-4-carboxylic acid]	< 75 nM	< 75 nM
